From US20250205240A1, “COMBINATIONS” (Recurium IP Holdings, LLC, priority 2022, published 2025)

Key:
HT-29 cell line = experiment: In vitro tumor cell proliferation assay (3D spheroid, 3D CTG), HT-29; type: cell-based; conditions: Homo sapiens
Experimental: (§1) Cell suspensions containing 1.5×10^3 total cells in 100 μL culture media were deposited in each well of an ultra-low attachment 96 well plate. Plates were incubated at 37° C. with […] and 5% CO2 for 72 h to allow for spheroid formation. […] ZN-c3 and/or Encorafenib compounds in DMSO were deposited into the plates using an automated drug dispenser at the indicated concentrations. Total DMSO content was normalized to 0.1% of the total volume in all assay conditions. Plates were sealed with breathable film to reduce evaporation and incubated at 37° C. with […] and 5% CO2 for 192 h. After 192 h, plates were removed from the incubator and allowed to come to room temperature. 100 μL room temperature 3D CTG reagent (Promega, Cat #G9683) was added to each well. Plates were agitated at 520 revolutions per minute (rpm) for 5 mins, allowed to stabilize protected from light for 30 mins, then luminescence was measured on an M5e plate reader (SpectraMax). Percent viability was calculated as percentage of cell viability relative to DMSO-only vehicle control.

[1] = tested on: CRC563 PDX model (BRAFmt CRC); type: in vivo, female athymic nude Foxn1nu mice; conditions: ZN-c3 60 mg/kg QD p.o., encorafenib 20 mg/kg QD p.o., cetuximab 20 mg/kg BIW i.p., 28-day study
Experimental: (§2) PDX Models: Tumor fragments (CRC769, CRC563, CTG-1009) were brought out of cryopreservation and implanted into female athymic nude Foxn1nu mice. Fragments were allowed to grow then excised once an appropriate volume was reached. A tumor slurry was made of 50% freshly harvested tumors minced to small tumor fragments in PBS and 50% Matrigel. The tumor slurry was injected subcutaneously into 6-8 week old female athymic nude Foxn1nu mice on the flank.
(§3) Grouping and treatments started when the mean tumor volume reached about 220 mm^3 (with individual tumors in the range of 200-240 mm^3). Vehicle animals were treated daily with 10 mL/kg HP-β-CD p.o. (oral gavage). Encorafenib was prepared weekly in 0.5% carboxymethyl cellulose: 0.5% Tween 80:99% deionized water and dosed daily (QD) at the indicated doses orally (p.o.) (see Tables 4 and 5 for dosage amounts). ZN-c3 was prepared daily in 20% HP-B-CD and dosed daily at the indicated doses p.o. (see Tables 4 and 5 for dosage amounts). […] Body weight and tumor volume of all animals was measured twice weekly throughout the studies that were 21 or 22 days or 3 weeks in duration (for CDX models HT-29 and LS411N) or that were 28 days or 4 weeks in duration (for PDX models CRC769, CRC563 and CTG-1009). The measurement of tumor size was performed with a caliper and the tumor volume (mm3) was estimated using the formula: TV=a×b2/2 throughout the study, where “a” and “b” is long and short diameters of a tumor, respectively. Animals were euthanized when their individual tumor burden exceeded 2000 mm^3 or is in a continuing deteriorating condition or close to a comatose state.

[2] = tested on: CRC769 PDX model (BRAFmt CRC); type: in vivo, female athymic nude Foxn1nu mice; conditions: ZN-c3 60 mg/kg QD p.o., encorafenib 20 mg/kg QD p.o., cetuximab 20 mg/kg BIW i.p., 28-day study
Experimental: as §2, §3

[3] = tested on: CTG-1009 PDX model (BRAFmt CRC); type: in vivo, female athymic nude Foxn1nu mice; conditions: ZN-c3 60 mg/kg QD p.o., encorafenib 20 mg/kg QD p.o., cetuximab 15 mg/kg BIW i.p., 28-day study
Experimental: as §2, §3

[4] = tested on: LS411N CDX model (BRAFmt CRC); type: in vivo, BALB/c nude mice; conditions: ZN-c3 60 mg/kg QD p.o., encorafenib 20 mg/kg QD p.o., cetuximab 15 mg/kg BIW i.p.; for TGI: 21- or 22-day study
Experimental: (§4) CDX Models: 6-8 week old BALB/c nude mice were inoculated subcutaneously on the right flank with the single cell suspension of 95% viable tumor cells (5×10^6) in 100 μL RPMI 1640 without serum (COLO205), 95% viable tumor cells (2×10^6) in 100 μL McCoy's 5a Medium Modified without serum (HT-29), or 95% viable tumor cells (2×106) in 100 μL RPMI 1640 and Matrigel mixture (1:1 ratio) without serum (LS411N).
as §3

[5] = tested on: HT-29 CDX model (BRAFmt CRC); type: in vivo, BALB/c nude mice; conditions: ZN-c3 60 mg/kg QD p.o., encorafenib 15 mg/kg QD p.o., cetuximab 15 mg/kg BIW i.p.; for TGI: 21- or 22-day study
Experimental: as §4, §3

LS411N cell line = experiment: In vitro tumor cell proliferation assay (3D spheroid, 3D CTG), LS411N; type: cell-based; conditions: Homo sapiens, LS-411N, 192 h
Experimental: as §1

WEE1 = WEE1 (Homo sapiens, UniProt P30291); conditions: as provided in WO 2019/173082; cited from earlier work
[6] = HT-29 spheroids, 192 h, 250 nM ZN-c3, 1.6 nM encorafenib, relative to 0.1% DMSO
[7] = LS411N spheroids, 250 nM ZN-c3, 25 nM encorafenib, relative to 0.1% DMSO

Sequence of WEE1 (P30291 whole entry, species assumed): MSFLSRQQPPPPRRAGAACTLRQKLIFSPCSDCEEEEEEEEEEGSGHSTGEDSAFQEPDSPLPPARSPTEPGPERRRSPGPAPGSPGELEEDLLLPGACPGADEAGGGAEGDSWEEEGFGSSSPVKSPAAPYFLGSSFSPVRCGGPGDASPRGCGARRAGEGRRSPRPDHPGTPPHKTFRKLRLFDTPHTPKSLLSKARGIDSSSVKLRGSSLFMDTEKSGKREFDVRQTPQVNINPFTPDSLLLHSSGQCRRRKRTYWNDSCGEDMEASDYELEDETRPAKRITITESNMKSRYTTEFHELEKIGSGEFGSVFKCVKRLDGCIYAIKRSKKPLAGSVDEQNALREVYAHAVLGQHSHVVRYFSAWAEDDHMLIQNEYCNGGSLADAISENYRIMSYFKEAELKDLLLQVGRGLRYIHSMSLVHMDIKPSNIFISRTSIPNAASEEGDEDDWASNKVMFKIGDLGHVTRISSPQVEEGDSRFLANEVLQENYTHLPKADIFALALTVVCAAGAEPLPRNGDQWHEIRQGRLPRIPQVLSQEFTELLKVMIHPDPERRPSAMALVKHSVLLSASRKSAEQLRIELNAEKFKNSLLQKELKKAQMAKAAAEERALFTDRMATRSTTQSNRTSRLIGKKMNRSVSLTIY

For `C=CCn1c(=O)c2cnc(Nc3ccc(N4CCN(C)CC4)cc3)nc2n1-c1ccc2c(n1)[C@@](O)(CC)CC2` [ZN-c3, (R)-2-allyl-1-(7-ethyl-7-hydroxy-6,7-dihydro-5H-cyclopenta[b]pyridin-2-yl)-6-((4-(4-methylpiperazin-1-yl)phenyl)amino)-1,2-dihydro-3H-pyrazolo[3,4-d]pyrimidin-3-one], the inhibition at 0.3 µM (HT-29 cell line; HT-29, 192 h) was 34.5%, the inhibition at 0.25 µM (HT-29 cell line; [6]) was 39% and the TGI [1] was 43.4. For the same molecule, the TGI [2] was 19.0, the TGI [3] was 51.2 and the “Tumor Vol. Change from D 14-D 21 (%)” value [4] was 35.8%. The TGI [4] was 69.0, the “Tumor Vol. Change from D 14-D 21 (%)” value [5] was 36.3% and the TGI [5] was 15.0. The inhibition at 0.35 µM (LS411N cell line) was 21.6%, the inhibition at 0.25 µM (LS411N cell line; [7]) was 27.5% and the “activity against WEE1” value (WEE1) was “active against WEE1”.

Molecule `COC(=O)N[C@@H](C)CNc1nccc(-c2cn(C(C)C)nc2-c2cc(Cl)cc(NS(C)(=O)=O)c2F)n1` [Encorafenib, encorafenib, reference compound] has an inhibition at 0.01 µM (HT-29 cell line; HT-29, 192 h) of 75.8%, an inhibition at 0.0016 µM (HT-29 cell line; [6]) of 39.5% and a TGI [2] of 69.0. The TGI [3] was 80.0, the “Tumor Vol. Change from D 14-D 21 (%)” value [4] was 36.6% and the TGI [4] was 64.6. The “Tumor Vol. Change from D 14-D 21 (%)” value [5] was 36.9%, the TGI [5] was 42.6 and the inhibition at 0.025 µM (LS411N cell line; [7]) was 28.3%.
